Experimental data from EP2545917B1, “NOVEL EP4 AGONIST” (Kaken Pharmaceutical Co., Ltd., priority 2010, dated 2011).

What was measured:
[1] = tested on: dextran sodium sulfate-induced colitis; experiment: Therapeutic effect on remission/relapse model of dextran sodium sulfate-induced colitis in mice; format: in vivo, BALB/c mice; details: SASP 100 mg/kg
Description: Next, therapeutic effect of compound F on colitis was studied in a chronic model. Female BALB/c mice, 6 weeks old, body weight about 20 g (Japan SLC) were purchased, acclimated for 1 week and used for the study. The mice were divided into a colitis induction group and a normal group. The colitis induction group was allowed to freely drink a 2.6 w/v% DSS (MP Biochemicals, M.W. 36,000- 50,000, Lot No. 4556J) solution to induce colitis. On day 8 when the stool score (defined in Example 23) of the colitis induction group reached about 4.5, the mice were subdivided into a control group, a compound F 1 mg/kg administration group and a salazosulfapyridine (SIGMA, Lot No. 085K1930, hereinafter to be abbreviated as SASP) 100 mg/kg administration group. Then the mice were allowed to freely drink distilled water instead of DSS solution for 9 days (remission period). After the grouping, the stool score was evaluated every 3 - 4 days. When the score of the control group reached about 1, the mice were again allowed to drink the DSS solution to cause a relapse (relapse period). The periods of remission and relapse were taken as 1 cycle and the cycle was repeated 5 times. As for the 5th cycle, however, only the remission period was performed.
Compound F at a dose of 1 mg/kg and SASP at a dose of 100 mg/kg were orally administered once a day, daily, for 50 days from the initial remission period (day 8 from the start of 2.6 w/v% DSS drinking) to the fifth remission period (day 57 from the start of 2.6 w/v% DSS drinking). To the control group was orally administered a solvent (1 vol% ethanol solution) at 10 mL/kg. If a mouse had score 0 of both stool consistency score and occult blood score on the last day of each remission period, the mouse was regarded as "in remission". The remission ratio (%) was calculated as a ratio of mice in remission in each group. Eight to 10 mice were used for each group and the results are shown in average value.

[2] = tested on: CD4+CD25- T cell transfer colitis; experiment: Prophylactic effect on CD4+CD25- T cell transfer colitis model in mice; format: in vivo, C.B-17/Icr-scid mice; details: scid mice, oral 1 mg/kg once a day for 20 days
Procedure: Female BALB/cA Jcl mice, 6 weeks old, body weight 19 - 23 g (CLEA Japan, Inc.) and female C.B-17/Icr-scid mice (6 weeks old, CLEA Japan, Inc.) were purchased, acclimated for 1 week and used for the study. After laparotomy under ether anesthesia, BALB/cA Jcl mice were exsanguinated to death through the abdominal aorta and caudal vena cava, and the spleen was isolated. Splenocytes were prepared from the spleen and then CD4^+CD25^- T cells were prepared with a CD4^+ T cell Isolation Kit (No. 130-090-860, Milky Biotech Co., Ltd.) and CD25-Biotin antibody (No. 130-092-569, Milky Biotech Co., Ltd.). The cells were separated using the autoMACS Separator (Milky Biotech Co., Ltd.). The separated CD4^+CD25^- T cells were suspended in physiological phosphate buffer solution, and 2.5×10^5 cells per animal were intraperitoneally administered to C.B-17/Icr-scid mice to induce colitis. […] To the control group was orally administered a solvent (1 vol% ethanol solution) at 10 mL/kg. […] The fecal occult blood score was evaluated in the same manner as in Example 23. […] Eight to 10 mice were used for each group and the results were expressed as average.

[3] = tested on: concanavalin A-induced hepatitis; experiment: Prophylactic effect on concanavalin A-induced hepatitis model in mice; format: in vivo, BALB/c mice; details: oral 1 hr before Con A, compound F 1 mg/10 mL/kg, prednisolone 5 mg/10 mL/kg, 20 hr after Con A
Procedure: BALB/c mice (female, 7 weeks old, Japan SLC) were purchased, acclimated for 1 week and used for the study. Except the no-induction group, Con A (type IV, Sigma-Aldrich) dissolved in saline was administered from the tail vein of the mice at a dose of 12.5 mg/10 mL/kg to induce hepatitis. Twenty hr later, the mice were subjected to laparotomy under ether anesthesia. A 0.5 mL of blood sample was collected from the caudal vena cava and heparinized plasma was obtained to measure plasma ALT and AST activities. Test substances were compound F (1 mg/10 mL solution), prednisolone (Nacalai Tesque, 5 mg/10 mL suspension (with 0.5 w/v% methylcellulose)) and water for injection (administered to the control group), which were orally administered at a volume of 10 mL/kg 1 hr before Con A injection. Seven to 9 animals were used for each group. After logarithmic transformation of the data, one-way analysis of variance was performed for statistical evaluation.

[4] = tested on: anti-Thy-1 antibody-induced glomerulonephritis; experiment: Anti-Thy-1 antibody-induced glomerulonephritis model in rats; format: in vivo, Wistar rats; details: oral 0.3 mg/kg twice a day
Procedure: Male Slc: Wistar rats (6 weeks old, Japan SLC) were purchased, acclimated for 1 week and used for the study. Except the normal group, anti-Thy-1 antibody (mouse anti-CD90 antibody (UK-Serotech Ltd. Code:MCA47XZ, clone No: MRC OX-7, Lot No.0303)) was administered once intravenously to the animals. A mixture of compound F and compound J (F:J = 52:41, indicated as compound F/J) was orally administered from the day of the antibody administration (day 0) to day 6, daily, twice a day (morning and evening; each 0.3 mg/kg). After 3 days from the antibody administration, urine was collected for one day. On day 7 of the antibody administration, the animal was autopsied. The right kidney was isolated, weighed and fixed with formalin. Five to 8 animals were used for each group and the results were expressed as average ± standard deviation.

[5] = mice, oral once a day, Compound F 1 mg/kg

SMILES: O=C(O)c1cc(/N=N/c2ccc(S(=O)(=O)Nc3ccccn3)cc2)ccc1O [SASP, salazosulfapyridine, reference compound]
- Remission Ratio Average ([1]; average of 5 remission periods, Compound F 1 mg/kg): 40.0%
- effect on stool score in remission and relapse periods ([1]; mice, oral once a day for 50 days, compound F 1 mg/kg): did not show a clear effect on the stool score in either the remission period or the relapse period
- Remission Ratio Cycle 1 [1, 5]: 50.0%
- Remission Ratio Cycle 2 [1, 5]: 50.0%
- Remission Ratio Cycle 3 [1, 5]: 37.5%
- Remission Ratio Cycle 4 [1, 5]: 50.0%
- Remission Ratio Cycle 5 [1, 5]: 12.5%

SMILES: C[C@]12C=CC(=O)C=C1CC[C@@H]1[C@@H]2[C@@H](O)C[C@@]2(C)[C@H]1CC[C@]2(O)C(=O)CO [prednisolone, reference compound]
- effect on body weight decrease score [2]: clearly worsened the score
- effect on stool consistency score [2]: failed to show a clear effect on the stool consistency score on day 21
- effect on increase of plasma ALT activity [3]: significantly and strongly suppressed the increase
- effect on increase of plasma AST activity [3]: significantly and strongly suppressed the increase

SMILES: Cc1cccc(C(C)[C@H](O)/C=C/[C@@H]2[C@@H]3[C@H](C[C@H]2O)O/C(=C\CCCc2nnn[nH]2)C3(F)F)c1 (mixture of isomers) [compound F/J, 4-[(Z)-(1S,5R,6R,7R)-6-[(1E,3R,4RS)-3-hydroxy-4-(m-tolyl)-1-pentenyl]-7-hydroxy-2-oxa-4,4-difluoro-bicyclo[3.3.0]octan-3-ylidene]-1-(tetrazol-5-yl)butane]
- body weight [4]: a shift similar to that of the control group
- relative kidney weight ([4]; day 7): a value lower than control and near the normal
- renal histopathology: total glomerular cells, mesangial region and PCNA-positive cells in the glomerulus ([4]; day 7): significantly suppressed the increase in all of these measures
- 24-hr urine protein ([4]; urine collected after 3 days): a lower value than control
- 24-hr urine volume ([4]; urine collected after 3 days): of the same level as the normal group
